Experimental data: patent US9730940B2, “Purine inhibitors of human phosphatidylinositol 3-kinase delta” (priority 2012, dated 2017)

Each compound was assayed against PI3K-alpha (Homo sapiens (Human), UniProt P42336) (assay: HTRF PI3K biochemical assay, alpha isoform). Details: ratio PI3K-alpha IC50 value/PI3K-delta IC50 value.
PI3K-alpha, sequence (P42336 whole entry, looked up, canonical isoform): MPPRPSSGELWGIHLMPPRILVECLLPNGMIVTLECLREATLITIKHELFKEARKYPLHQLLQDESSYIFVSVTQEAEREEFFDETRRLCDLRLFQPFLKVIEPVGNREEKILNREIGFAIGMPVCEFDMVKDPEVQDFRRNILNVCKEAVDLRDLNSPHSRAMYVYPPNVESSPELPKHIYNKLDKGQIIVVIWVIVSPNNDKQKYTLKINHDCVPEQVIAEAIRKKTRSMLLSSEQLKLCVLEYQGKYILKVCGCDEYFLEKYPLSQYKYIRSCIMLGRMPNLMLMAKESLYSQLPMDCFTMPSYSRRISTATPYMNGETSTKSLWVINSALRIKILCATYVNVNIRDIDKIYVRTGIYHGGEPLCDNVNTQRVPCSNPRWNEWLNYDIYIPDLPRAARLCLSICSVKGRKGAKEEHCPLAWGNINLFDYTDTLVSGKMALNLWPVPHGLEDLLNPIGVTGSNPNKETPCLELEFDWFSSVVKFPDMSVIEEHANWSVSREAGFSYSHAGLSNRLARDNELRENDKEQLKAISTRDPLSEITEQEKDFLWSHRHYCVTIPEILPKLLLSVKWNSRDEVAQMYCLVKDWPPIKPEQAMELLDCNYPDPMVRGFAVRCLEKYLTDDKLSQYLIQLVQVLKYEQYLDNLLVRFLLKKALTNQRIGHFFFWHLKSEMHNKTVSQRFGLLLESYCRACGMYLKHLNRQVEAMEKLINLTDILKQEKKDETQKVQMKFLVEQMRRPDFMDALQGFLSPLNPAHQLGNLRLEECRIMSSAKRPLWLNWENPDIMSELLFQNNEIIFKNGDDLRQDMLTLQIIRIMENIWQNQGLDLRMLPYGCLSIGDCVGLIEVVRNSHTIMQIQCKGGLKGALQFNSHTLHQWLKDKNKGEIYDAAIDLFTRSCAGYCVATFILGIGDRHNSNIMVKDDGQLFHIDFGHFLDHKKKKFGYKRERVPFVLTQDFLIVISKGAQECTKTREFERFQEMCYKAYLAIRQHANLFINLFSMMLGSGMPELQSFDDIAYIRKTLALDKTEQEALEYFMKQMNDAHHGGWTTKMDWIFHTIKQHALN
PI3K-alpha, sequence (P27986 whole entry partner, looked up, canonical isoform): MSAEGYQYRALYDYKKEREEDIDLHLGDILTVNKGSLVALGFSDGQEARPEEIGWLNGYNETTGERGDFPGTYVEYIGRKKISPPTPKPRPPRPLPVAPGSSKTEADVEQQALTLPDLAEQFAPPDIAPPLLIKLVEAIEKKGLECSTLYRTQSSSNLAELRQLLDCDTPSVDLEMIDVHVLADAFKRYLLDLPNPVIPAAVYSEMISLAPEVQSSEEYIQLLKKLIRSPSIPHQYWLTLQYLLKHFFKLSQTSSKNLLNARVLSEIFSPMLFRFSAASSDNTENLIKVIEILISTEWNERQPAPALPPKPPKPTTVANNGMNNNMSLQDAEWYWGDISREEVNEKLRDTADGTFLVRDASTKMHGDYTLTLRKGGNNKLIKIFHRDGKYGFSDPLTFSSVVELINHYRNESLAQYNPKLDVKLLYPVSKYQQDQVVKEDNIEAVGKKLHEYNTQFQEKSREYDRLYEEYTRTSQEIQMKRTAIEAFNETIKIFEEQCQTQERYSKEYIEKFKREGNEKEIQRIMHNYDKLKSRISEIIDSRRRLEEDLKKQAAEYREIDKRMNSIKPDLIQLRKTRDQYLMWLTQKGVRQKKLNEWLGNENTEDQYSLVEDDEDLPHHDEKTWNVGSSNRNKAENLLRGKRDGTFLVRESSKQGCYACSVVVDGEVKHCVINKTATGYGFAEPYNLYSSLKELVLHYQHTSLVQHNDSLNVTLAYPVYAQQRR

| Compound | Relative Selectivity versus PI3Kalpha |
| --- | --- |
| CCn1ncc(-c2nc3c(O[C@H]4CCN(C(=O)c5ccn(C)n5)C4)ncnc3n2C)c1C [Compound 2-37, 8-(1-ethyl-5-methyl-1H-pyrazol-4-yl)-9-methyl-6-({(3S)-1-[(1-methyl-1H-pyrazol-3-yl)carbonyl]pyrrolidin-3-yl}oxy)-9H-purine] | >10 |
| CCn1ncc(-c2nc3c(O[C@H]4CCN(C(=O)c5cc(C)nn5C)C4)ncnc3n2C)c1C [Compound 2-38, 6-({(3S)-1-[(1,3-dimethyl-1H-pyrazol-5-yl)carbonyl]pyrrolidin-3-yl}oxy)-8-(1-ethyl-5-methyl-1H-pyrazol-4-yl)-9-methyl-9H-purine] | 7 |
| CCn1ncc(-c2nc3c(O[C@H]4CCN(C(=O)c5nccn5C)C4)ncnc3n2C)c1C [Compound 2-39, 8-(1-ethyl-5-methyl-1H-pyrazol-4-yl)-9-methyl-6-({(3S)-1-[(1-methyl-1H-imidazol-2-yl)carbonyl]pyrrolidin-3-yl}oxy)-9H-purine] | >10 |
| CCn1ncc(-c2nc3c(O[C@H]4CCN(C(=O)c5c[nH]nn5)C4)ncnc3n2C)c1C [Compound 2-40, 8-(1-ethyl-5-methyl-1H-pyrazol-4-yl)-9-methyl-6-{[(3S)-1-(1H-1,2,3-triazol-4-ylcarbonyl)pyrrolidin-3-yl]oxy}-9H-purine] | 2 |
| CCn1ncc(-c2nc3c(O[C@H]4CCN(C(=O)c5cnn6cccnc56)C4)ncnc3n2C)c1C [Compound 2-41, 8-(1-ethyl-5-methyl-1H-pyrazol-4-yl)-9-methyl-6-{[(3S)-1-(pyrazolo[1,5-a]pyrimidin-3-ylcarbonyl)pyrrolidin-3-yl]oxy}-9H-purine] | 6 |
| CCn1ncc(-c2nc3c(O[C@H]4CCN(C(=O)c5nnc6n5CCCC6)C4)ncnc3n2C)c1C [Compound 2-42, 8-(1-ethyl-5-methyl-1H-pyrazol-4-yl)-9-methyl-6-{[(3S)-1-(5,6,7,8-tetrahydro[1,2,4]triazolo[4,3-a]pyridin-3-ylcarbonyl)pyrrolidin-3-yl]oxy}-9H-purine] | 3 |
| CCn1ncc(-c2nc3c(O[C@H]4CCN(C(=O)c5c[nH]nc5C(F)(F)F)C4)ncnc3n2C)c1C [Compound 2-43, 8-(1-ethyl-5-methyl-1H-pyrazol-4-yl)-9-methyl-6-{[(3S)-1-{[3-(trifluoromethyl)-1H-pyrazol-4-yl]carbonyl}pyrrolidin-3-yl]oxy}-9H-purine] | 10 |
| CCn1ncc(-c2nc3c(O[C@H]4CCN(C(=O)c5cn(C)nn5)C4)ncnc3n2C)c1C [Compound 2-44, 8-(1-ethyl-5-methyl-1H-pyrazol-4-yl)-9-methyl-6-({(3S)-1-[(1-methyl-1H-1,2,3-triazol-4-yl)carbonyl]pyrrolidin-3-yl}oxy)-9H-purine] | 9 |
| CCn1ncc(-c2nc3c(O[C@H]4CCN(C(=O)c5nnsc5C)C4)ncnc3n2C)c1C [Compound 2-46, 8-(1-ethyl-5-methyl-1H-pyrazol-4-yl)-9-methyl-6-({(3S)-1-[(5-methyl-1,2,3-thiadiazol-4-yl)carbonyl]pyrrolidin-3-yl}oxy)-9H-purine] | >10 |
| CCn1ncc(-c2nc3c(O[C@H]4CCN(C(=O)c5nc6cc(Cl)ccn6n5)C4)ncnc3n2C)c1C [Compound 2-47, 6-({(3S)-1-[(7-chloro[1,2,4]triazolo[1,5-a]pyridin-2-yl)carbonyl]pyrrolidin-3-yl}oxy)-8-(1-ethyl-5-methyl-1H-pyrazol-4-yl)-9-methyl-9H-purine] | 1 |
| CCn1ncc(-c2nc3c(O[C@H]4CCN(C(=O)c5[nH]ncc5C)C4)ncnc3n2C)c1C [Compound 2-48, 8-(1-ethyl-5-methyl-1H-pyrazol-4-yl)-9-methyl-6-({(3S)-1-[(4-methyl-1H-pyrazol-5-yl)carbonyl]pyrrolidin-3-yl}oxy)-9H-purine] | >10 |
| CCn1ncc(-c2nc3c(O[C@H]4CCN(C(=O)c5noc(C(C)(C)O)n5)C4)ncnc3n2C)c1C [Compound 2-50, 2-(3-{[(3S)-3-{[8-(1-ethyl-5-methyl-1H-pyrazol-4-yl)-9-methyl-9H-purin-6-yl]oxy}pyrrolidin-1-yl]carbonyl}-1,2,4-oxadiazol-5-yl)propan-2-ol] | 8 |
| CCn1ncc(-c2nc3c(O[C@H]4CCN(C(=O)c5conc5C)C4)ncnc3n2C)c1C [Compound 2-51, 8-(1-ethyl-5-methyl-1H-pyrazol-4-yl)-9-methyl-6-({(3S)-1-[(3-methylisoxazol-4-yl)carbonyl]pyrrolidin-3-yl}oxy)-9H-purine] | >10 |
| CCn1ncc(-c2nc3c(O[C@H]4CCN(C(=O)c5ccnn5C(C)C)C4)ncnc3n2C)c1C [Compound 2-52, 8-(1-ethyl-5-methyl-1H-pyrazol-4-yl)-9-methyl-6-{[(3S)-1-{[1-(1-methylethyl)-1H-pyrazol-5-yl]carbonyl}pyrrolidin-3-yl]oxy}-9H-purine] | >10 |
| CCn1ncc(-c2nc3c(O[C@H]4CCN(C(=O)c5ccnc(C)c5)C4)ncnc3n2C)c1C [Compound 2-56, 8-(1-ethyl-5-methyl-1H-pyrazol-4-yl)-9-methyl-6-({(3S)-1-[(2-methylpyridin-4-yl)carbonyl]pyrrolidin-3-yl}oxy)-9H-purine] | >10 |
| CCn1ncc(-c2nc3c(O[C@H]4CCN(C(=O)c5ncoc5C)C4)ncnc3n2C)c1C [Compound 2-57, 8-(1-ethyl-5-methyl-1H-pyrazol-4-yl)-9-methyl-6-({(3S)-1-[(5-methyl-1,3-oxazol-4-yl)carbonyl]pyrrolidin-3-yl}oxy)-9H-purine] | >10 |
| CCn1ncc(-c2nc3c(O[C@H]4CCN(C(=O)c5oc(C)nc5C)C4)ncnc3n2C)c1C [Compound 2-58, 6-({(3S)-1-[(2,4-dimethyl-1,3-oxazol-5-yl)carbonyl]pyrrolidin-3-yl}oxy)-8-(1-ethyl-5-methyl-1H-pyrazol-4-yl)-9-methyl-9H-purine] | >10 |
| CCn1ncc(-c2nc3c(O[C@H]4CCN(C(=O)c5cc(C)n(C)n5)C4)ncnc3n2C)c1C [Compound 2-59, 6-({(3S)-1-[(1,5-dimethyl-1H-pyrazol-3-yl)carbonyl]pyrrolidin-3-yl}oxy)-8-(1-ethyl-5-methyl-1H-pyrazol-4-yl)-9-methyl-9H-purine] | 2 |
| CCn1ncc(-c2nc3c(O[C@H]4CCN(C(=O)c5cc(C(F)(F)F)nn5C)C4)ncnc3n2C)c1C [Compound 2-61, 8-(1-ethyl-5-methyl-1H-pyrazol-4-yl)-9-methyl-6-{[(3S)-1-{[1-methyl-3-(trifluoromethyl)-1H-pyrazol-5-yl]carbonyl}pyrrolidin-3-yl]oxy}-9H-purine] | >10 |
| CCn1ncc(-c2nc3c(O[C@H]4CCN(C(=O)C5CC(=O)N(C)C5)C4)ncnc3n2C)c1C (stereo partly drawn) [Compound 2-62, 4-{[(3S)-3-{[8-(1-ethyl-5-methyl-1H-pyrazol-4-yl)-9-methyl-9H-purin-6-yl]oxy}pyrrolidin-1-yl]carbonyl}-1-methylpyrrolidin-2-one] | >10 |
| CCn1ncc(C(=O)N2CC[C@H](Oc3ncnc4c3nc(-c3cnn(CC)c3C)n4C)C2)c1C [Compound 2-63, 8-(1-ethyl-5-methyl-1H-pyrazol-4-yl)-6-({(3S)-1-[(1-ethyl-5-mcthyl-1H-pyrazol-4-yl)carbonyl]pyrrolidin-3-yl}oxy)-9-methyl-9H-purine] | 10 |
